This note sets out measurements from patent US20210023065A1, “AMPHIPHILIC THIOL COMPOUNDS AND USES THEREOF” (THE REGENTS OF THE UNIVERSITY OF CALIFORNIA, priority 2018, published 2021).

Some results are limits rather than exact numbers.

One series concerns Gα(i). The experiment in a line: Acyl resin-assisted capture detection of Gα(i) palmitoylation in HeLa cells. It is filed as cell-based. As to conditions: 1.25 μmol/10^7 cells, relative to vehicle. The procedure: (§1) HeLa cells were grown to confluency in 10 cm plates. Stock solutions of compounds were prepared in DMSO as before and diluted to the final indicated concentration in 5.5 mL of OptiMEM media before adding to cells. Cells were incubated at 37° C. for 20 min and then media removed and 3 mL of HBSS added to each plate. Cells were detached using a cell scraper, pelleted by centrifugation at 1,000 rcf for 5 min and the pellet processed using a CAPTUREome S-Palmitoylated Protein Kit (Badrilla, UK) according to the manufacturer's protocol. Samples were resolved by electrophoresis using 4-20% SDS-polyacrylamide gels (Bio-Rad) under denaturing and reducing conditions. Proteins were then electrotransferred to a PVDF membrane (Bio-Rad). […]
(§2) Assays were performed in 3 biological replicates. […] Western blots were analyzed using ImageJ^1. […]

For the next series, the system named is INCL lymphoblasts. It is filed as cell-based, human. The procedure:
INCL lymphoblasts were plated at 100,000 cells/well in 80 μL of OptiMEM in a 96 well plate. Stock organic solutions were prepared as before and then diluted to 5× stock solutions in OptiMEM. 20 μL of the OptiMEM stocks was then added to the appropriate wells to achieve the indicated final concentration of the compound in 100 μL of cell suspension. After a 24 h incubation, 10 μL of WST-1 reagent (Sigma-Aldrich) was added to each well and cells incubated for 1 h at 37° C., 5% CO2. Absorbance measurements were taken using a Satire II plate reader (Tecan) at 440 nm using 690 nm as a reference. The background absorbance of the WST-1 reagent in media was subtracted and cell viability was reported as a percentage of the viability of the non-treated control cells. All conditions were tested in 4 replicate wells and values reported as means±SD.

A further series relates to ERK1/2 (pY204/pY187). The series can be described thus: Detection of ERK1/2 phosphorylation in HeLa cells (western blot). The class given is cell-based. The note with it: 1.25 μmol/10^7 cells, 20 min, then EGF 5 min. As for the experimental part: HeLa cells were grown to confluency in 6 cm plates and then serum starved overnight in OptiMEM. Stock solutions of compounds were prepared in DMSO as before and diluted to the final indicated concentration in 2 mL of OptiMEM media before adding to cells. Cells were incubated at 37° C. for 20 min and then stimulated with […] EGF (ThermoFisher) for 5 min. Media was then removed and cells washed once with HBSS. 1.5 mL of HBSS was then added to each plate. Cells were detached using a cell scraper, pelleted by centrifugation at 1,000 rcf for 5 min and the pellet processed using MPER™ Mammalian Protein Extraction Reagent (ThermoFisher) with the addition of Halt Protease Inhibitor Cocktail (ThermoFisher) and 1 mM sodium orthovanadate. Samples were resolved by electrophoresis using 4-20% SDS-polyacrylamide gels (Bio-Rad) under denaturing and reducing conditions. Proteins were then electrotransferred to a PVDF membrane (Bio-Rad). The membrane was blocked with 3% BSA and then subjected to immunoblot analysis using AKT/MAPK Signaling Pathway Antibody Cocktail (ab151279) (Abcam) and secondary goat anti-rabbit IgG-HRP (sc-2030) (Santa Cruz Biotechnology). […]
Assays were performed in 3 biological replicates. Western blots were analyzed using ImageJl. […]
For orientation: In western blotting, separated proteins are transferred to a membrane and probed.

The next series concerns the target T1, lyric/metadherin (Homo sapiens, UniProt Q86UE4).
T1 construct: we detected the palmitoylation levels of eight known palmitoylated proteins after treatment with 1; endogenous in cells; host or cells: HeLa
T1 sequence (Q86UE4 1-582): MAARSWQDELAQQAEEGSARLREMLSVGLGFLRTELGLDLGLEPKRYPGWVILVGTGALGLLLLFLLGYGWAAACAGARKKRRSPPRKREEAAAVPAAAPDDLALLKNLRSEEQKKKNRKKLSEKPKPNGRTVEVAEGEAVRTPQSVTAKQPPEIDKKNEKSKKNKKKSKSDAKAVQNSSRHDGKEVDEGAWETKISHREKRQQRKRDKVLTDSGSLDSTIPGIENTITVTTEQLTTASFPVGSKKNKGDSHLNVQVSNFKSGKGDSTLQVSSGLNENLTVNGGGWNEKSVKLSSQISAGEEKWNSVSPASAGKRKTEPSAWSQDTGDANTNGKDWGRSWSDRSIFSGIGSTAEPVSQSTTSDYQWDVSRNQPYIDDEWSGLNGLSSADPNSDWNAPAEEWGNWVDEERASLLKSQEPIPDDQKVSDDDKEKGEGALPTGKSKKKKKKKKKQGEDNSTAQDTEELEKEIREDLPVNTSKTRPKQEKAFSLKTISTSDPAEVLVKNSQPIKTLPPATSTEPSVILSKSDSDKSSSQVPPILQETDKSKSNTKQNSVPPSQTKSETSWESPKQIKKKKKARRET
The series can be described thus: Acyl resin-assisted capture detection of lyric/metadherin palmitoylation in HeLa cells. The class given is cell-based. As to conditions: 1.25 μmol/10^7 cells, relative to vehicle. As for the experimental part:
as §1, §2

`CCCCCCCCNC(=O)[C@@H](N)CS` [compound 1, H2N-L-Cys-Oct]: the “reduction of palmitoylation level of Gα(i)” value in the series with Gα(i) is more than 80%. Further, the “doses that did not decrease cell viability compared to the nontreated control” value in the series with INCL lymphoblasts is reported as “up to 0.08 μmol/10^7 cells”. Besides, the “ERK1/2 phosphorylation after EGF stimulation” value in the series on ERK1/2 (pY204/pY187) is “but not ERK1/2 phosphorylation”. Further, on lyric/metadherin, the “reduction of palmitoylation level of lyric/metadherin” value is listed as more than 80%.
